The values that follow come from publication PMC8449657, “Identification of a self‐sufficient cytochrome P450 monooxygenase from Cupriavidus pinatubonensis JMP134 involved in 2‐hydroxyphenylacetic acid catabolism, via homogentisate pathway” (Microbial Biotechnology, 2021).

Molecules are shown by their SMILES.

The test concerns the target T1, OhpA (Cupriavidus pinatubonensis, UniProt Q46QG0).
T1 construct: gene Reut_B5278; full length, 783 aa, untagged as far as told; pBS1-ohpA (PBAD) expressed in Pseudomonas putida KT2440, assayed in cell extract
T1 sequence (Q46QG0 1-783): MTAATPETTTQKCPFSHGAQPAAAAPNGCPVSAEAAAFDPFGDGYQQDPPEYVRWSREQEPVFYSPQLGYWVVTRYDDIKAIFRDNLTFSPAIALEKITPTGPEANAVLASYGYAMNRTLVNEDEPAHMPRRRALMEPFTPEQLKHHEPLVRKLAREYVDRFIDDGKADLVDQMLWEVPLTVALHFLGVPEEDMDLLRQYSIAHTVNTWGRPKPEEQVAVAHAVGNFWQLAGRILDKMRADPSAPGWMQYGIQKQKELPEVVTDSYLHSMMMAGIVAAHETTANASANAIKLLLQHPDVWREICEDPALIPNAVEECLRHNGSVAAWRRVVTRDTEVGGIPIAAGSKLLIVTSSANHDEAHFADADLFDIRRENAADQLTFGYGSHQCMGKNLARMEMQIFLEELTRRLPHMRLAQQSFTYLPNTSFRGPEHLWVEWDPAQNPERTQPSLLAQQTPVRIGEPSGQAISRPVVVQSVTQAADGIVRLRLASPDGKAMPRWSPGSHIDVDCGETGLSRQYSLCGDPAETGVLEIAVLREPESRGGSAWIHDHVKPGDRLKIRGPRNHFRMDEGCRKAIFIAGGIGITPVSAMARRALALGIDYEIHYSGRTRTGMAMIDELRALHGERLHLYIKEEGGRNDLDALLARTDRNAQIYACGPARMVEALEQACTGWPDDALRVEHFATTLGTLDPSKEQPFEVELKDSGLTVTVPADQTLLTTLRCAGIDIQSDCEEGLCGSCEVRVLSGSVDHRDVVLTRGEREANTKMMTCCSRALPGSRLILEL
Briefly: substrate-dependent NADH oxidation at […] nm in extract of P. putida KT2440 pBS1-ohpA. Type of test: biochemical. The note with it: 0.2 mM NADH, 100 uM 2-HPA, 1 uM FAD, 35 mM Tris/acetate pH 7.5.

With `NC(=O)C1=CN([C@@H]2O[C@H](COP(=O)(O)OP(=O)(O)OC[C@H]3O[C@@H](n4cnc5c(N)ncnc54)[C@H](O)[C@@H]3O)[C@@H](O)[C@H]2O)C=CC1` [NADH], the “substrate-dependent NADH oxidation at 340 nm in extract of P. putida KT2440 pBS1” value was “we assayed the substrate‐dependent NADH oxidation in cell extracts of P. putida KT2440 harbouring pBS1‐ohpA”.
